From ChEMBL document CHEMBL4411321, “Discovery of Potent, Selective, and Orally Bioavailable Estrogen-Related Receptor-γ Inverse Agonists To Restore the Sodium Iodide Symporter Function in Anaplastic Thyroid Cancer” (J Med Chem, 2019)

Legend:
[1] = target: T1, Estrogen-related receptor gamma (Homo sapiens, UniProt P62508)
T1 sequence (P62508 whole entry): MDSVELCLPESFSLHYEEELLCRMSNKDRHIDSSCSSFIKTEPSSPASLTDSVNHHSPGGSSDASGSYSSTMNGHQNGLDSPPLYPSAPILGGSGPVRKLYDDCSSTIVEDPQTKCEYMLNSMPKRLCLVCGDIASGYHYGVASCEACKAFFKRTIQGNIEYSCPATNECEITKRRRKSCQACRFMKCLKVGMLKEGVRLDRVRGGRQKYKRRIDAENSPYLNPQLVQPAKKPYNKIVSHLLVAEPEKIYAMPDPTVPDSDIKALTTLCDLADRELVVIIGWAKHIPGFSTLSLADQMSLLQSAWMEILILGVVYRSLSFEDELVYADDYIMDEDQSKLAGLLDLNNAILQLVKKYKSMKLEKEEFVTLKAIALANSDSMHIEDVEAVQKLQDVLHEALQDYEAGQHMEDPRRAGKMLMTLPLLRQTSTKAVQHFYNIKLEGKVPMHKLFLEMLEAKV

Estrogen receptor = target: T2, Estrogen receptor (Homo sapiens, UniProt P03372)
T2 sequence (P03372 whole entry): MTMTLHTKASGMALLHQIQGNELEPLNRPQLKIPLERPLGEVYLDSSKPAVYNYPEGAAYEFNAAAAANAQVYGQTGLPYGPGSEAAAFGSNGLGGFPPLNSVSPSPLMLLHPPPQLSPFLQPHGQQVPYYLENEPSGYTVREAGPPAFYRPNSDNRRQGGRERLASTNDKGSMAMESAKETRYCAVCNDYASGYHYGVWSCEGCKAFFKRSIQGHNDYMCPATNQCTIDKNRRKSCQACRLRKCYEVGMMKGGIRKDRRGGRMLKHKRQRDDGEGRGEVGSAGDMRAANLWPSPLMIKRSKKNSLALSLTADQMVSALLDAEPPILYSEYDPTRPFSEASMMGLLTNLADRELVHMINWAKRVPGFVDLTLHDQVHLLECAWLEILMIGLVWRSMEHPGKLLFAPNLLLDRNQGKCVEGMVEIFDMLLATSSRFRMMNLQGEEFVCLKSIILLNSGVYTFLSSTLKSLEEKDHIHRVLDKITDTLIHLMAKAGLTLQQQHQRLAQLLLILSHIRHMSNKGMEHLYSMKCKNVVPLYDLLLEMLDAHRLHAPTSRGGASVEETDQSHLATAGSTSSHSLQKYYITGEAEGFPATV

[2] = target: T3, Steroid hormone receptor ERR1 (Homo sapiens, UniProt P11474)
T3 sequence (P11474 whole entry): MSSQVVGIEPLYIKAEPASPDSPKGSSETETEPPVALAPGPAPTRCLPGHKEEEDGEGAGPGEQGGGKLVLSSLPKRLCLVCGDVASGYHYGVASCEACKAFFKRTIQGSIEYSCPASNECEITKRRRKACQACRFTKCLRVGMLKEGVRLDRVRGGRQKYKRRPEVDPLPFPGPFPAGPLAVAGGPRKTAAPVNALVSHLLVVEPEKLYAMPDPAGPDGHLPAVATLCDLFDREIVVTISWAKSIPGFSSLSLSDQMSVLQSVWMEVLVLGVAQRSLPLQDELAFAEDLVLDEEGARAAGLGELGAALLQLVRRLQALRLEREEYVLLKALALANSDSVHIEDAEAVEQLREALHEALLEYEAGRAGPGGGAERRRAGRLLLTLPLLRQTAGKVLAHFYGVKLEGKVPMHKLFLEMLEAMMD

SMILES: OCCC/C(=C(\c1ccc(O)cc1)c1ccc(N2CCN(C3CCCC3)CC2)cc1)c1ccccc1
- IC50 [1]: 115 nM

SMILES: OCCC/C(=C(\c1ccc(O)cc1)c1ccc(N2CCN(C3CCC3)CC2)cc1)c1ccccc1
- IC50 (Estrogen receptor): 1660 nM
- IC50 [2]: > 10000 nM
- IC50 [1]: 53 nM

SMILES: OCCC/C(=C(\c1ccc(O)cc1)c1ccc(N2CCN(C3CCCCC3)CC2)cc1)c1ccccc1
- IC50 (Estrogen receptor): 2120 nM
- IC50 [2]: 9700 nM
- IC50 [1]: 99 nM

SMILES: CC(C)N1CCN(c2ccc(/C(=C(/CCCO)c3ccccc3)c3ccc(NC(=N)N)cc3)cc2)CC1
- IC50 [1]: > 10000 nM

SMILES: CC(C)N1CCN(c2cccc(/C(=C(/CCCO)c3ccccc3)c3ccc(O)cc3)c2)CC1
- IC50 [1]: > 10000 nM

SMILES: CN1CCN(c2ccc(/C(=C(/CCCO)c3ccccc3)c3ccc(OC(=O)C(C)(C)C)cc3)cc2)CC1
- IC50 [1]: 2700 nM

SMILES: CC(=O)Nc1ccc(/C(=C(\CCCO)c2ccccc2)c2ccc(N3CCN(C(C)C)CC3)cc2)cc1
- IC50 [1]: 4330 nM

SMILES: CCN1CCN(c2ccc(/C(=C(/CCCO)c3ccccc3)c3ccc(O)cc3)cc2)CC1
- IC50 (Estrogen receptor): 1140 nM
- IC50 [2]: > 10000 nM
- IC50 [1]: 50 nM

SMILES: CN1CCN(c2ccc(/C(=C(/CCCOC(=O)C(C)(C)C)c3ccccc3)c3ccc(OC(=O)C(C)(C)C)cc3)cc2)CC1
- IC50 [1]: > 10000 nM

SMILES: CC(C)N1CCN(c2ccc(/C(=C(/CCCO)c3ccccc3)c3ccc(OS(C)(=O)=O)cc3)cc2)CC1
- IC50 [1]: 2630 nM

SMILES: CC(C)N1CCN(c2ccc(/C(=C(/CCCO)c3ccccc3)c3ccc(NS(=O)(=O)C4CC4)cc3)cc2)CC1
- IC50 [1]: 3630 nM

SMILES: CC(C)N1CCN(c2ccc(/C(=C(/CCCO)c3ccccc3)c3ccc(OS(=O)(=O)C(F)(F)F)cc3)cc2)CC1
- IC50 [1]: 3020 nM
